According to publication PMC7180948, “New Insights into 4-Anilinoquinazolines as Inhibitors of Cardiac Troponin I–Interacting Kinase (TNNi3K)” (Molecules, 2020):

How the values were obtained:
Assay in all cases: biochemical
Design in all cases: KINOMEscan competition binding panel (Eurofins DiscoverX), single concentration, % inhibition
Conditions in all cases: read-out: 7 at 1 µM % inhibition
BRSK2 = BRSK2 (Homo sapiens, UniProt Q8IWQ3)
How it was run: (§1)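 A single 1 µM concentration of each compound is screened across upwards of 400 human kinases using the KINOMEscan format.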

EPHB3 = EPHB3 (Homo sapiens, UniProt P54753)
How it was run: as §1

WNK1 = WNK1 (Homo sapiens, UniProt Q9H4A3)
How it was run: as §1

IKK-beta = target: T1, IKK-beta (Homo sapiens, UniProt O14920)
T1 construct: gene IKBKB
How it was run: as §1

MEK3 = target: T2, MEK3 (Homo sapiens, UniProt P46734)
T2 construct: gene MAP2K3
How it was run: as §1

DAPK2 = DAPK2 (Homo sapiens, UniProt Q9UIK4)
How it was run: as §1

[1] = target: T3, ABL1(E255K)-phosphorylated (Homo sapiens, UniProt P00519, E255K)
T3 construct: phosphorylated
How it was run: as §1

VRK2 = VRK2 (Homo sapiens, UniProt Q86Y07)
How it was run: as §1

CAMKK1 = CAMKK1 (Homo sapiens, UniProt Q8N5S9)
How it was run: as §1

PDPK1 = PDPK1 (Homo sapiens, UniProt O15530)
How it was run: as §1

EPHA8 = EPHA8 (Homo sapiens, UniProt P29322)
How it was run: as §1

NEK7 = NEK7 (Homo sapiens, UniProt Q8TDX7)
How it was run: as §1

LRRK2(G2019S) = LRRK2(G2019S) (Homo sapiens, UniProt Q5S007, G2019S)
How it was run: as §1

PIP5K2B = target: T4, PIP5K2B (Homo sapiens, UniProt P78356)
T4 construct: gene PIP4K2B
How it was run: as §1

TIE2 = target: T5, TIE2 (Homo sapiens, UniProt Q02763)
T5 construct: gene TEK
How it was run: as §1

IRAK4 = IRAK4 (Homo sapiens, UniProt Q9NWZ3)
How it was run: as §1

RET = RET (Homo sapiens, UniProt P07949)
How it was run: as §1

LATS2 = LATS2 (Homo sapiens, UniProt Q9NRM7)
How it was run: as §1

PIP5K1A = PIP5K1A (Homo sapiens, UniProt Q99755)
How it was run: as §1

TESK1 = TESK1 (Homo sapiens, UniProt Q15569)
How it was run: as §1

NLK = NLK (Homo sapiens, UniProt Q9UBE8)
How it was run: as §1

PKAC-alpha = target: T6, PKAC-alpha (Homo sapiens, UniProt P17612)
T6 construct: gene PRKACA
How it was run: as §1

TLK1 = TLK1 (Homo sapiens, UniProt Q9UKI8)
How it was run: as §1

DMPK = DMPK (Homo sapiens, UniProt Q09013)
How it was run: as §1

Sequence of EPHA8 (P29322 whole entry): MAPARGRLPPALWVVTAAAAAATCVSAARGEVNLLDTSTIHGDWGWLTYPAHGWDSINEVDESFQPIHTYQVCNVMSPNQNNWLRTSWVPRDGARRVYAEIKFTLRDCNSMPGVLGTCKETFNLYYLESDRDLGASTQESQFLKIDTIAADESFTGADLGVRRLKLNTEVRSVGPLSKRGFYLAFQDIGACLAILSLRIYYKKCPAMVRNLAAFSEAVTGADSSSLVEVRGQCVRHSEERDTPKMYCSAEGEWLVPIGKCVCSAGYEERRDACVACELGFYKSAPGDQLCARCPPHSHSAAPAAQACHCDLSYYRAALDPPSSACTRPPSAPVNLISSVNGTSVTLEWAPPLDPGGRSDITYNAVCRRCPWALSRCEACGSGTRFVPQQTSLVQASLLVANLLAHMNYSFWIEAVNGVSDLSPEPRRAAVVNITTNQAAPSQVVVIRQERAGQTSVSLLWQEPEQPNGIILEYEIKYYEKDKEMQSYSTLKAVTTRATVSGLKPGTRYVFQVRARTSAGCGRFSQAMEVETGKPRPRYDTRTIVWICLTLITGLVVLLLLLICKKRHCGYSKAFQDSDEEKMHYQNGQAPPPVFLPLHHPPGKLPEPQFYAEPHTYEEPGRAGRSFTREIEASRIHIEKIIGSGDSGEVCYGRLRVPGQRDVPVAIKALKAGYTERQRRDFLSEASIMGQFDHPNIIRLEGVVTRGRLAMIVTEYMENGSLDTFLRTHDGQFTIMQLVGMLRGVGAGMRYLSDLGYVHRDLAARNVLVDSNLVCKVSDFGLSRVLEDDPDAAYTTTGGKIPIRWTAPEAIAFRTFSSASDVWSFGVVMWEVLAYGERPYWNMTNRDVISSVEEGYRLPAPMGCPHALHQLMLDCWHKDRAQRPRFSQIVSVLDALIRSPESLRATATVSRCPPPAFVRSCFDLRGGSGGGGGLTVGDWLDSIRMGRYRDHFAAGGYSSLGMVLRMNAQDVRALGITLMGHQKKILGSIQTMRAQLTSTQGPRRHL
Sequence of DAPK2 (Q9UIK4 whole entry): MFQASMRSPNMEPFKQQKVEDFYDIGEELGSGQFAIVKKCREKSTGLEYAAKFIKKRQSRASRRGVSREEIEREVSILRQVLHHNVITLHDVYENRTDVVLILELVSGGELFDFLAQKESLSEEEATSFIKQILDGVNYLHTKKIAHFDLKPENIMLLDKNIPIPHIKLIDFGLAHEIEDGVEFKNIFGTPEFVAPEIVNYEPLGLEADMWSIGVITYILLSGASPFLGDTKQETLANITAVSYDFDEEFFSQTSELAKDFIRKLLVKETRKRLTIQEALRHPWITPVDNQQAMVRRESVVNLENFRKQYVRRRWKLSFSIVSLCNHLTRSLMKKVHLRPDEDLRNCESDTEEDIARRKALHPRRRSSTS
Sequence of TESK1 (Q15569 whole entry): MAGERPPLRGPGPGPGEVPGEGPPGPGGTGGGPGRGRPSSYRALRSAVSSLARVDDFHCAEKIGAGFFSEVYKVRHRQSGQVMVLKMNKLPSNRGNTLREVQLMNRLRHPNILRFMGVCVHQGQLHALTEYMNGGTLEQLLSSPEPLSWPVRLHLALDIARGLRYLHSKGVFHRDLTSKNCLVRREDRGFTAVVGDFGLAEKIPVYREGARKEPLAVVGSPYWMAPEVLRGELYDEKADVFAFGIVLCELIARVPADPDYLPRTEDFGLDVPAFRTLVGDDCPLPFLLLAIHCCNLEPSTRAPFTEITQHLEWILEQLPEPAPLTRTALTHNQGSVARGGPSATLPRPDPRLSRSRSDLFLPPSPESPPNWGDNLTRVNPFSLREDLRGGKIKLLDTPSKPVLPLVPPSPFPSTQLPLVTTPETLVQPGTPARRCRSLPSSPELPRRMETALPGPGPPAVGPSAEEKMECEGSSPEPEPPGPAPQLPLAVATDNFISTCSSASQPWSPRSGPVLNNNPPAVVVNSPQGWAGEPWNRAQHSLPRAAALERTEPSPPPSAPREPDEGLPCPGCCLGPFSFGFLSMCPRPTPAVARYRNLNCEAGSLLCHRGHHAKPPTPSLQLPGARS
T4 sequence (P78356 whole entry): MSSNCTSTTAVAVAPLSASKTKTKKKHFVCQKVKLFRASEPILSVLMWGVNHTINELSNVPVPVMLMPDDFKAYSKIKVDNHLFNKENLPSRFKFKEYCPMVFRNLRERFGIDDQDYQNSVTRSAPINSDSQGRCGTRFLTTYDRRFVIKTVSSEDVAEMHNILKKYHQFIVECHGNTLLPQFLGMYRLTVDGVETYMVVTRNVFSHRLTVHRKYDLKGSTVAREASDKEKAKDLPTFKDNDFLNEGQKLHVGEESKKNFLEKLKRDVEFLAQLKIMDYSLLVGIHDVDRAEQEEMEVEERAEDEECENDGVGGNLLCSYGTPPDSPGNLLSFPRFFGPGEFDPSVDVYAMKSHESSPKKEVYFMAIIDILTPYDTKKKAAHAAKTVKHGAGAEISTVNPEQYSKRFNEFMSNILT
Sequence of VRK2 (Q86Y07 whole entry): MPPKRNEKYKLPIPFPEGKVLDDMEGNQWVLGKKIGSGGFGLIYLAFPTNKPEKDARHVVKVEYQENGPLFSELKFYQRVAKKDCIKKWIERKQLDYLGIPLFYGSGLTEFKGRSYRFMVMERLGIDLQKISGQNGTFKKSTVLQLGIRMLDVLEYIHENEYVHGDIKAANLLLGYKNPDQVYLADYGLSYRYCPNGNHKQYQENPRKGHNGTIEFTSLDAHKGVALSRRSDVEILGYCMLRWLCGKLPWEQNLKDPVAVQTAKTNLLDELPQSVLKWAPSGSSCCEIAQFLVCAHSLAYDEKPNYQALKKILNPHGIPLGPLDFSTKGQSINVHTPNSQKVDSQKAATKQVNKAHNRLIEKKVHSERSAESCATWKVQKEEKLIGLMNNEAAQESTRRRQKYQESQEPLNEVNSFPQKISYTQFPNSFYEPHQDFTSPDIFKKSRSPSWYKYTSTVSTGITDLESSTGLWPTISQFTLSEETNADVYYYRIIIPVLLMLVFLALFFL
Sequence of PDPK1 (O15530 whole entry): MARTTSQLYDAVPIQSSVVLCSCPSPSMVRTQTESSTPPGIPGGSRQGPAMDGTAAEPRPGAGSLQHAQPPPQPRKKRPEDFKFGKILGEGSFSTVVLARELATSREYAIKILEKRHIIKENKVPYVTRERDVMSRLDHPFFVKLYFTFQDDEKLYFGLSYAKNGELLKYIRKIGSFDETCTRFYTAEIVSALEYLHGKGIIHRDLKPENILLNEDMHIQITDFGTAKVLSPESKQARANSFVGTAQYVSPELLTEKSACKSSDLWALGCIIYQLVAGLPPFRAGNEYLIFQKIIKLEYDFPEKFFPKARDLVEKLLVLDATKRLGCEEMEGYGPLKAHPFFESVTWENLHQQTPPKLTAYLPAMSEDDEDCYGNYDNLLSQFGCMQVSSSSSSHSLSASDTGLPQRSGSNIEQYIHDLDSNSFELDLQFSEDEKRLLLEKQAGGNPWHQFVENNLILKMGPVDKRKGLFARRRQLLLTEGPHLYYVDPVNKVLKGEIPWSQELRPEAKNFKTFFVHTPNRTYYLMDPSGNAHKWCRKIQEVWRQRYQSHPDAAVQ
Sequence of IRAK4 (Q9NWZ3 whole entry): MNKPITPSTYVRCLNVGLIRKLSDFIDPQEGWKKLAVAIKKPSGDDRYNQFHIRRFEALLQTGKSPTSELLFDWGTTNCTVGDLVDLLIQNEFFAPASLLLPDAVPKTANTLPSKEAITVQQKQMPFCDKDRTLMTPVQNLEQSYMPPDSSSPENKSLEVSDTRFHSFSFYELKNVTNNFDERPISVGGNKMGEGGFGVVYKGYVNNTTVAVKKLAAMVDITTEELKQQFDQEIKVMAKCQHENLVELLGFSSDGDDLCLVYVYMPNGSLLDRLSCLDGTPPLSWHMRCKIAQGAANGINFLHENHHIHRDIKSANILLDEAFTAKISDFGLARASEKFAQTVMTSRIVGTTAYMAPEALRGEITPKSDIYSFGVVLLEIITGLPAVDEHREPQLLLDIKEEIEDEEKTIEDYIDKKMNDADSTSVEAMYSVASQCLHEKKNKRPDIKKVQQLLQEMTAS
Sequence of CAMKK1 (Q8N5S9 whole entry): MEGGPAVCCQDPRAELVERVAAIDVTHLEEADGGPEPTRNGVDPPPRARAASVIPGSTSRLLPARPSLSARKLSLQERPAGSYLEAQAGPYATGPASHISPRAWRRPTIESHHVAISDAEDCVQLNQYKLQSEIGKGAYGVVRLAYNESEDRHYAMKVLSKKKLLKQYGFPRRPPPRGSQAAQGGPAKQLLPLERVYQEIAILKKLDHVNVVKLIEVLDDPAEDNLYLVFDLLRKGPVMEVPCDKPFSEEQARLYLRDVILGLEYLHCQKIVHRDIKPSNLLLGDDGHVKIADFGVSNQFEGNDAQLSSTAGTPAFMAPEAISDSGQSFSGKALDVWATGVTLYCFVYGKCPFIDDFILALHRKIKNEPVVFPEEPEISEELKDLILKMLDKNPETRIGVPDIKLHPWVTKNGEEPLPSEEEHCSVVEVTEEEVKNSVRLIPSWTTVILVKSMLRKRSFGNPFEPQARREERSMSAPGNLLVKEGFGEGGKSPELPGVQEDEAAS
Sequence of PIP5K1A (Q99755 whole entry): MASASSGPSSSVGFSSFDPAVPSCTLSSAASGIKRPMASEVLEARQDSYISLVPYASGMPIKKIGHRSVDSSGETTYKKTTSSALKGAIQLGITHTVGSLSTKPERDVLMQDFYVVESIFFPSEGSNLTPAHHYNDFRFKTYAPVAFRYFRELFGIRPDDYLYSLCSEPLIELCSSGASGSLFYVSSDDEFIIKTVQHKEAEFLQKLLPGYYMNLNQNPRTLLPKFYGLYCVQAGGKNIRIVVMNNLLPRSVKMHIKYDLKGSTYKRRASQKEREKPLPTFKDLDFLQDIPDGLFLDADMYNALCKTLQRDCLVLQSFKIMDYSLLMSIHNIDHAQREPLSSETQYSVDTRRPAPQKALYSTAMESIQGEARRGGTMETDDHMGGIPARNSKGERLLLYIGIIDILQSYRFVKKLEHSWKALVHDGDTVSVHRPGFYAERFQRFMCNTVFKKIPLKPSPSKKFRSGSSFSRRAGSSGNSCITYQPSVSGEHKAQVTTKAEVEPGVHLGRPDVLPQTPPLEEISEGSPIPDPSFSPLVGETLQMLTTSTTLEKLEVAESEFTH

Work on `CNS(=O)(=O)c1ccc(N(C)C)c(Nc2ncnc3cc(OC)c(OC)cc23)c1` [compound 7, 3-((6,7-dimethoxyquinazolin-4-yl)amino)-4-(dimethylamino)-N-methylbenzenesulfonamide] yielded an inhibition at 1 µM (BRSK2) of 27%, an inhibition at 1 µM (EPHB3) of 0% and an inhibition at 1 µM (WNK1) of 62%. For the same molecule, the inhibition at 1 µM (IKK-beta) was 68%, the inhibition at 1 µM (MEK3) was 4% and the inhibition at 1 µM (DAPK2) was 0%. It also gave an inhibition at 1 µM [1] of 34%, an inhibition at 1 µM (VRK2) of 29% and an inhibition at 1 µM (CAMKK1) of 5%. For the same molecule, the inhibition at 1 µM (PDPK1) was 0%, the inhibition at 1 µM (EPHA8) was 0% and the inhibition at 1 µM (NEK7) was 0%. The inhibition at 1 µM (LRRK2(G2019S)) was 23%, the inhibition at 1 µM (PIP5K2B) was 0% and the inhibition at 1 µM (TIE2) was 0%. The inhibition at 1 µM (IRAK4) was 56%, the inhibition at 1 µM (RET) was 11% and the inhibition at 1 µM (LATS2) was 0%. The inhibition at 1 µM (PIP5K1A) was 0%, the inhibition at 1 µM (TESK1) was 0% and the inhibition at 1 µM (NLK) was 24%. The inhibition at 1 µM (PKAC-alpha) was 6%, the inhibition at 1 µM (TLK1) was 0% and the inhibition at 1 µM (DMPK) was 0%.
